Reference: patent US20240000783A1, “COMBINATION THERAPY” (Pfizer Inc., priority 2020, published 2024)

Tested on: LNCaP prostate cancer cells (AR+ spheroids)
Assay: Multicellular tumor spheroid growth assay
Format: cell-based
Conditions: Homo sapiens, single agent, read-out: SGI % (percent spheroid growth inhibition); for inhibition at 0.1 µM: 100 nM; for inhibition at 1 µM: 1000 nM
Description: Example 1—Multicellular Tumor Spheroid Growth Assay in Human AR+ Prostate Cancer Cells (LNCaP) LNCaP prostate cancer cells were obtained from the ATCC and maintained in RPMI 1640 medium supplemented with 10% fetal bovine serum and penicillin-streptomycin as per ATCC guidelines. Cells were maintained in humidified incubator at 37° C. with 5% CO2. Spheroid assays were performed in 96 well ultralow attachment plates (ULA-96U) from Nexcelom & Thermo Fisher Scientific. […] To aid spheroid formation, dispensed cells were centrifuged at 220×g for 6 minutes in the ultralow attachment plates and allowed to form compact spheroids for 4 days prior to the initiation of treatment. After spheroids were formed, 150 μL of medium was aspirated from each well without disturbing the spheroid, and fresh RPMI medium of the same volume was added containing single agent compounds (palbociclib, COMPOUND A, or enzalutamide), or selected combinations thereof. Final concentrations of each compound in the wells were: 30 or 100 nM for palbociclib; 100, 300 or 1000 nM for COMPOUND A; and 1000 nM for enzalutamide. DMSO (0.01%) was used as the vehicle control. DMSO and all compounds were diluted in cell medium. Medium and compounds were replenished twice per week, with 3 and 4-day intervals. Replenishment was executed by aspirating 150 μL of medium per well without disturbing the spheroid and then adding the same volume of premixed medium/compound solution to spheroids. In some cases, an extended phase of treatment was followed by a ‘recovery’ phase where medium was replenished without addition of compounds. Spheroid diameter was quantified immediately following each medium change twice a week (on every 3rd or 4th day) throughout the duration of the assay. Growth of these MCTS was monitored over time to assess: (i) amplitude of response (SGI) and (ii) duration of response to single agents and combination treatments while on treatment. Average diameters of tumor spheroids were plotted in GraphPad Prism 8 and the area-under-curve (AUC) was calculated. AUC baseline was determined by the average tumor spheroid diameter at Day 0 in the vehicle (DMSO) controls. Spheroid growth inhibition, SGI, for all treatment arms was derived at the timepoint when the vehicle (DMSO) treated spheroids reach their maximal diameter (usually close to 1 mm but this can differ among cell lines); this corresponds to the last time point taken for the vehicle (DMSO) treated spheroids. SEM calculated based on n=10 to 12 wells per test group. Percent spheroid growth inhibition, or SGI %, was calculated as follows: SGI %=(1-AUC treatment/AUC DMSO)×100%.

Row | SMILES | inhibition at 0.1 µM [%] | inhibition at 0.3 µM (300 nM) [%] | inhibition at 1 µM [%] | inhibition at 0.03 µM (30 nM) [%]
1 | CC(C)n1c(C(C)(C)O)nc2c(F)cc(-c3nc(N[C@@H]4CCOC[C@H]4O)ncc3Cl)cc21 [COMPOUND A, 1,5-anhydro-3-({5-chloro-4-[4-fluoro-2-(2-hydroxypropan-2-yl)-1-(propan-2-yl)-1H-benzimidazol-6-yl]pyrimidin-2-yl}amino)-2,3-dideoxy-D-threo-pentitol] | 27 | 38 | 53 | 
2 | CNC(=O)c1ccc(N2C(=S)N(c3ccc(C#N)c(C(F)(F)F)c3)C(=O)C2(C)C)cc1F [enzalutamide, 4-[3-[4-cyano-3-(trifluoromethyl)phenyl]-5,5-dimethyl-4-oxo-2-thioxo-1-imidazolidinyl]-2-fluoro-N-methyl-benzamide] |  |  | 46 | 
3 | CC(=O)c1c(C)c2cnc(Nc3ccc(N4CCNCC4)cn3)nc2n(C2CCCC2)c1=O [palbociclib] | 24 |  |  | 5
